Measured values from patent publication US11090293B2 (Ovid Therapeutics Inc., priority 2018, dated 2021).
Like-named read-outs stand apart in the source and are kept apart here.

Experiments:
[1] = human, in vivo, po
[2] = human, in vivo

Structure (SMILES) | residual effect on Choice Reaction Time and Critical Flicker Fusion [1] | CLR ([2]; both, iv, 10 mg) [mL/min] | half-life (t½) ([2]; both, po) [h] | CLR ([2]; both, po, 2.5 mg) [mL/min] | AUC0-∞ ([2]; both, po, 5 mg) [ng·h/mL] | CLR ([2]; both, po, 5 mg) [mL/min] | AUC0-∞ ([2]; both, po, 10 mg) [ng·h/mL] | AUC0-∞ ([2]; both, po, 15 mg) [ng·h/mL] | CLR ([2]; both, po, 15 mg) [mL/min] | AUC0-∞ ([2]; both, po, 20 mg) [ng·h/mL] | CLR ([2]; both, po, 20 mg) [mL/min] | CL/F (CL for 10 mg IV) ([2]; iv, 10 mg) [mL/min] | Slope (90% CI) of AUC0-∞, dose proportionality assessment ([2]; po)
CCN(CC)CCN1C(=O)CN=C(c2ccccc2F)c2cc(Cl)ccc21 [Flurazepam] | showed significant effect | – | – | – | – | – | – | – | – | – | – | – | –
Oc1noc2c1CCNC2 [gaboxadol, 4,5,6,7-tetrahydroisoxazolo [5,4-c]pyridine-3-ol] | did not show residual effect | 208 | 1.5 | 196 | 171 | 222 | 346 | 539 | 234 | 669 | 265 | 438 | 0.98 (0.95, 1.01)
